The source of these data is publication PMC10073729, “Synthesis, radiolabeling, and evaluation of 68Ga-labeled aminoquinoxaline derivative as a potent PFKFB3-targeted PET tracer” (Frontiers in Chemistry, 2023).

Read-outs that look alike come from different tables or passages of the source.

Test [1] has as its system PFKFB3. As to conditions: 2019, cited from earlier work.
For test [2], the system named is F2,6BP production in HCT116 cells. Put plainly: Cellular inhibition assay: F2,6BP production in glucose-starved, restimulated HCT116 cells. As to conditions: Homo sapiens, HCT-116, 25 mM glucose restimulation 4 h, triplicate. It is filed as cell-based. The method, then: For the cellular inhibition assay, the protocol used in this section was also from the same literature as the PFKFB3 enzymatic activity assay, with minor modifications ([Boutard et al., 2019]). Briefly, glucose-starved HTC116 cells were pretreated with diluted compounds at different concentrations and restimulated with 25 mM glucose for 4 h to trigger glycolytic flux. Cells were then lysed by NaOH ([…]) under 85°C for 10 min and transferred to a HEPES solution (20 mM) neutralized by acetic acid (1 M) to pH 7.5–8.0. The lysates (equal amounts, normalized to protein level) were reacted in a mixture of α-glycerophosphate dehydrogenase (0.17 U), aldolase (0.083 U), pyrophosphate-dependent fructose-6-phosphate kinase from potato (0.17 U) and triosephosphate isomerase (0.83 U) in Tris (pH 8.0), glucose-6-phosphate (17 mM), fructose-6-phosphate (2.5 mM) and magnesium chloride (5.5 mM) in a total volume of 100 µL. The reaction was induced by the addition of NADH (0.14 mM) under 30°C, and the absorbance at 340 nm was measured 30 min post addition. All absorbances for reaction mixtures for test compounds with different concentrations were recorded and used for IC50 calculations in GraphPad Prism 5.0 software.

Test [3] has as its target T1, Human Recombinant PFKFB3 Protein (His and GST Tag) (Homo sapiens, UniProt Q16875).
T1 construct: His; GST; purchased SinoBiological
Description: ADP-Glo-based PFKFB3 enzymatic activity inhibition assay. It is filed as biochemical. As to conditions: triplicate. The source says: All regents used in this section were purchased from Sigma, and the Human Recombinant PFKFB3 Protein (His and GST Tag) was purchased from SinoBiological. The ADP-Glo™ Kinase Assay kit was also obtained from Promega.
The PFKFB3 enzymatic activity assay followed an identical procedure used in previously published literature, along with the same regents and materials ([Boutard et al., 2019]).

The mark [4] stands for this setting: representative PFKFB3 inhibitors, Figure 1, ref Boyd et al., 2015, Boutard et al., Wang et al., 2020, read-out: IC50 (PFKBF3).

T1 sequence (Q16875 whole entry): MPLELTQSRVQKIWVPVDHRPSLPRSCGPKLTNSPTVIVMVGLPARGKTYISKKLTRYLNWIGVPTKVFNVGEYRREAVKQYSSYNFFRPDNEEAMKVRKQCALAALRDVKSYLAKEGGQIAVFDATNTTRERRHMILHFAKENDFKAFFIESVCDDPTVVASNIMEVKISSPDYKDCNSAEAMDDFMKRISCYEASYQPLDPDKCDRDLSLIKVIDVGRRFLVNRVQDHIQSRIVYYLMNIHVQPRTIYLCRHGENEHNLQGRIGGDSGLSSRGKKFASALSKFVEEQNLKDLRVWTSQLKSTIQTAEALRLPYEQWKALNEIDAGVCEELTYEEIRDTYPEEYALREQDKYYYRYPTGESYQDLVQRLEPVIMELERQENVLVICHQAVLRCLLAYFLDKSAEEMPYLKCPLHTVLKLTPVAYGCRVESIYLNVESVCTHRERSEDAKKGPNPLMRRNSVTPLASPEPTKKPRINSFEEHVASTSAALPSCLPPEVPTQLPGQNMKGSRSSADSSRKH

`CC(C)OC(=O)c1cccc(-c2cc(S(=O)(=O)Nc3ccc(C(=O)O)c(O)c3)sc2Cl)c1` [compound 1]: the IC50 in test [1] (setting [4]) was 150 nM.
Regarding `Cc1c(S(=O)(=O)Nc2cccc(-c3nnn[nH]3)c2)oc2ccc(C(C)C)cc12` [compound 2], the IC50 in test [1] (setting [4]) was 80 nM.
`Cc1noc(C)c1Cn1nc(C#N)c2cc(Oc3ccc(NC(=O)[C@@H]4CCCN4)cc3)ccc21` [compound 3]: in test [1] (setting [4]), the IC50 is 3 nM.
Consider `CN1CCCC(NC(=O)c2cncc(Nc3cc(-c4ccc5ccn(C)c5c4)c4nccnc4c3)c2)C1` (centres unmarked) [compound 4], for which the IC50 is 2300 ± 800 nM in test [2]; 6.7 ± 2.3 nM in test [3]; 2 nM in test [1] (ref Boutard et al., read-out: IC50 enzymatic PFKFB3 inhibition (reported)).
As to `Cn1ccc2ccc(-c3cc(Nc4cncc(C(=O)NC5CCCN(C(=O)CCC(C(=O)O)N6CCN(CC(=O)O)CCN(CC(=O)O)CCN(CC(=O)O)CC6)C5)c4)cc4nccnc34)cc21` (centres unmarked) [compound 5, 2,2′,2′′-(10-(1-carboxy-4-(3-(5-((8-(1-methyl-1H-indol-6-yl)quinoxalin-6-yl)amino)nicotinamido)piperidin-1-yl)-4-oxobutyl)-1,4,7,10-tetraazacyclododecane-1,4,7-triyl) triacetic acid], the IC50 in test [2] worked out at 5300 ± 1400 nM; in test [3], 12.5 ± 4.5 nM.

A word on the IC50: it is the midpoint of a concentration-inhibition curve.
